Results reported in ChEMBL document CHEMBL5625213, “Novel acridine-based LSD1 inhibitors enhance immune response in gastric cancer” (Eur J Med Chem, 2023).
Activity calls are given as the source filed them.

Legend:
[1] = target: T1, Lysine-specific histone demethylase 1A (Homo sapiens, UniProt O60341); assay: Inhibition of recombinant LSD1 ( unknown origin) expressed in Escherichia coli BL21 (DE3) cells using H3K4me2 peptide as substrate incubated for 30 mins in presence of FAD by fluorescence microplate reader analysis
[2] = target: T1, Lysine-specific histone demethylase 1A; assay: Binding affinity to LSD1 in human BGC-823 cells assessed as thermal stability at 2 uM measured at 40 to 55 degreeC by cellular thermal shift assay; format: cell-based
[3] = system: BGC-823; assay: Inhibition of stemness in human BGC-823 cells assessed as inhibition of SOX2 expression at 0.5 to 2 uM by Western blot analysis; format: functional, cell-based; conditions: dose 0.5-2 µM
[4] = system: BGC-823; assay: Cytotoxicity against human BGC-823 cells co-cultured with T cells assessed as increase in TNF-alpha mRNA level at 1 uM by qRT-PCR analysis; format: functional, cell-based
[5] = system: MFC; assay: Antitumor activity against MFC cells implanted in 615 mouse assessed as increase in IFN-gamma mRNA level at 15 to 50 mg/kg, IG administered for 14 days by qRT-PCR analysis; format: functional, organism-based; conditions: dose 15-50 mg/kg, time 14.0 day
[6] = system: BGC-823; assay: Downregulation of PD-L1 level in human BGC-823 cells incubated for 5 days by Western blot analysis; format: functional, cell-based; conditions: dose 0.5-2 µM, time 5.0 day
[7] = system: BGC-823; assay: Inhibition of stemness in human BGC-823 cells assessed as inhibition of OCT4 expression at 0.5 to 2 uM by Western blot analysis; format: functional, cell-based; conditions: dose 0.5-2 µM
[8] = system: BGC-823; assay: Inhibition of cell migration in human BGC-823 cells at 0.5 to 2 uM measured upto 48 hrs by fluorescence microscope based wound healing assay; format: functional; conditions: dose 0.5-2 µM
[9] = system: BGC-823; assay: Inhibition of stemness in human BGC-823 cells assessed as inhibition of CD44 expression at 0.5 to 2 uM by Western blot analysis; format: functional, cell-based; conditions: dose 0.5-2 µM
[10] = system: BGC-823; assay: Downregulation of PD-L1 mRNA level in human BGC-823 cells at 0.5 to 2 uM incubated for 5 days by qRT-PCR analysis; format: functional, cell-based; conditions: dose 0.5-2 µM, time 5.0 day
[11] = Toxicity in 615 mouse implanted with MFC cells assessed as liver damage upto 50 mg/kg, IG measured after 14 days; format: organism-based; conditions: in vivo, po, 336 h, time 14 day
[12] = Toxicity in 615 mouse implanted with MFC cells assessed as kidney damage upto 50 mg/kg, IG measured after 14 days; format: organism-based; conditions: in vivo, po, 336 h, time 14 day
[13] = system: MFC; assay: Antitumor activity against MFC cells implanted in 615 mouse assessed as increase in TNF-alpha mRNA level at 15 to 50 mg/kg, IG administered for 14 days by qRT-PCR analysis; format: functional, organism-based; conditions: dose 15-50 mg/kg, time 14.0 day
[14] = system: MFC; assay: Antitumor activity against MFC cells implanted in 615 mouse assessed as inhibition of tumor growth administered intragastrically for 14 days; format: functional, cell-based; conditions: dose 15-50 mg/kg, route ig, time 14.0 day
[15] = system: MFC; assay: Downregulation of PD-L1 mRNA level in MFC cells at 0.5 to 2 uM incubated for 5 days by qRT-PCR analysis; format: functional, cell-based; conditions: Mus musculus, dose 0.5-2 µM, time 5.0 day
[16] = system: BGC-823; assay: Cytotoxicity against human BGC-823 cells co-cultured with T cells assessed as increase in IFN-gamma mRNA level at 1 uM by qRT-PCR analysis; format: functional, cell-based
[17] = system: MFC; assay: Downregulation of PD-L1 level in MFC cells incubated for 5 days by Western blot analysis; format: functional, cell-based; conditions: Mus musculus, dose 0.5-2 µM, time 5.0 day
[18] = system: MFC; assay: Antitumor activity against MFC cells implanted in 615 mouse assessed as decrease in PD-L1 expression in tumor administered intragastrically for 14 days by Western blot analysis; format: functional, cell-based; conditions: dose 15-50 mg/kg, route ig, time 14.0 day
[19] = system: BGC-823; assay: Cytotoxicity against human BGC-823 cells co-cultured with T cells assessed as increase in 4-1BB mRNA level at 1 uM by qRT-PCR analysis; format: functional, cell-based
[20] = system: BGC-823; assay: Cytotoxicity against human BGC-823 cells co-cultured with T cells assessed as increase in IL-2 mRNA level at 1 uM by qRT-PCR analysis; format: functional, cell-based
[21] = Toxicity in 615 mouse implanted with MFC cells assessed as change in body weight upto 50 mg/kg, IG measured after 14 days; format: organism-based; conditions: in vivo, po, 336 h, time 14 day
[22] = system: MFC; assay: Antitumor activity against MFC cells implanted in 615 mouse assessed as reduction in tumor size at 15 to 50 mg/kg, IG administered for 14 days; format: functional, organism-based; conditions: dose 15-50 mg/kg, time 14.0 day
[23] = system: MFC; assay: Antitumor activity against MFC cells implanted in 615 mouse assessed as increase in IL-2 mRNA level at 15 to 50 mg/kg, IG administered for 14 days by qRT-PCR analysis; format: functional, organism-based; conditions: dose 15-50 mg/kg, time 14.0 day
[24] = system: BGC-823; assay: Cytotoxicity against human BGC-823 cells co-cultured with T cells assessed as reduction in cell viability pretreated for 5 days followed by co-incubation with T cells for 4 days by CCK8 assay; format: functional, cell-based; conditions: dose 0.5-2 µM, time 5.0 day
[25] = target: T1, Lysine-specific histone demethylase 1A; assay: Inhibition of LSD1 in human BGC-823 cells assessed as induction of H3K4me2 accumulation at 0.5 to 2 uM incubated for 5 days by Western blot analysis; format: cell-based; conditions: dose 0.5-2 µM, time 5.0 day
[26] = target: Programmed cell death protein 1/Programmed cell death 1 ligand 1 (Homo sapiens) (UniProt Q15116+Q9NZQ7); assay: Inhibition of Fc-tagged recombinant human PD-1 binding to PD-L1 in human BGC-823 cells incubated for 5 days by DAPI staining based confocal microscopic analysis; format: cell-based; conditions: dose 0.5-2 µM, time 5.0 day
[27] = system: BGC-823; assay: Cytotoxicity against human BGC-823 cells co-cultured with T cells assessed as increase in CCR7 mRNA level at 1 uM by qRT-PCR analysis; format: functional, cell-based
[28] = system: BGC-823; assay: Cytotoxicity against human BGC-823 cells co-cultured with T cells assessed as increase in CCR10 mRNA level at 1 uM by qRT-PCR analysis; format: functional, cell-based
[29] = target: T1, Lysine-specific histone demethylase 1A; assay: Inhibition of LSD1 in human BGC-823 cells assessed as induction of H3K4me1 accumulation at 0.5 to 2 uM incubated for 5 days by Western blot analysis; format: cell-based; conditions: dose 0.5-2 µM, time 5.0 day
[30] = system: MFC; assay: Antiproliferative activity against MFC cells assessed as inhibition of cell proliferation at 2 uM incubated for 5 days by CCK8 assay; format: functional; conditions: Mus musculus, 120 h, time 5 day
[31] = system: BGC-823; assay: Inhibition of stemness in human BGC-823 cells assessed as inhibition of Nanog expression at 0.5 to 2 uM by Western blot analysis; format: functional, cell-based; conditions: dose 0.5-2 µM

CN(C)Cc1ccc(Nc2c3ccccc3nc3ccccc23)cc1
> 10 µM: IC50 [1]

CN(C)C(=O)c1ccc(Nc2c3ccccc3nc3ccccc23)cc1
> 10 µM: IC50 [1]

Cc1ccc2c(Nc3ccc(N(C)C)cc3)c3ccc([N+](=O)[O-])cc3nc2c1C
> 10 µM: IC50 [1]

Cc1ccc2nc3c(C)c(C)ccc3c(Nc3ccc(N(C)C)cc3)c2c1
> 10%: inhibition at 2 µM [30]
Non-Toxic: Activity [11] | Activity [12] | Activity [21]
0.013 µM: IC50 [1]
active: Activity [2] | inhibition [3] | Activity [4] | Activity [5] | Activity [6] Dose-Dependent Effect | inhibition [7] | inhibition [8] | inhibition [9] | Activity [10] | Activity [13] | Activity [14] Dose-Dependent Effect | Activity [15] | Activity [16] | Activity [17] Dose-Dependent Effect | Activity [18] Dose-Dependent Effect | Activity [19] | Activity [20] | Activity [22] | Activity [23] | Activity [24] Dose-Dependent Effect | inhibition [25] | inhibition [26] Dose-Dependent Effect | Activity [27] | Activity [28] | inhibition [29] | inhibition [31]

CN(C)c1ccc(Nc2c3ccccc3nc3c(N(C)C)cccc23)cc1
> 10 µM: IC50 [1]
